Data from US9145351B2, “Azole derivatives, methods for producing the same, intermediate thereof, agro-horticultural agents” (KUREHA CORPORATION, priority 2009, dated 2015).

Columns and labels:
Format in all cases: cell-based
Alternaria alternata = assay: Plate medium fungicidal assay, Alternaria blotch A.m (Experimental Example 5)
Method: (§1) In this Experimental Example, the fungicidal effects of the inventive compounds on various phytopathogenic fungi for plants and hazardous microorganism for industrial materials were examined by the methods described below. Each inventive compound was dissolved in 2 ml of dimethyl sulfoxide. 0.6 ml of this solution was added to 60 nil of a PDA medium (potato dextrose agar medium) at about 60 degrees C., which was mixed thoroughly in a 100-ml conical flask, and poured into a dish, where it was solidified, thereby obtaining a plate medium containing the inventive compound at 50 mg/L and 5 mg/L. On the other hand, a subject microorganism previously cultured on a plate medium was cut out using a cork borer whose diameter was 4 mm, and inoculated to the test compound-containing plate medium described above. […] The growth degree of the microorganism on the test compound-containing plate medium thus observed was compared with the growth degree of the microorganism in the untreated group, and % mycelial growth inhibition was calculated by the following equation. R=100(dc−dt)/dc wherein R=% mycelial extension inhibition, dc=flora diameter in untreated plate, dt=flora diameter in treated plate. The results obtained as described above were evaluated as one of the 5 grades according to the following criteria. […] Alternaria blotch (Alternaria alternata) A.m

Fusarium oxysporum = assay: Plate medium fungicidal assay, cucumber fusarium wilt F.c (Experimental Example 5)
Method: as §1, with “Cucumber fusarium wilt (Fusarium oxysporum) F.c” for “Alternaria blotch (Alternaria alternata) A.m”

Phaeosphaeria nodorum = assay: Plate medium fungicidal assay, wheat Septoria nodorum blotch P.n (Experimental Example 5)
Method: as §1, with “Wheat Septoria nodorum” for “Alternaria”, “(Phaeosphaeria nodorum) P.n” for “(Alternaria alternata) A.m”

Fusarium graminearum = assay: microbe, parasite or virus in culture
[1] = tested on: Pseudocercoporella herpotrichoides; assay: Plate medium fungicidal assay, wheat eye spot P.h (Experimental Example 5)
Method: as §1, with “Wheat eye spot (Pseudocercoporella herpotrichoides) P.h” for “Alternaria blotch (Alternaria alternata) A.m”

[2] = plate medium containing compound at 5 mg/L
[3] = plate medium containing compound at 50 mg/L

SMILES | Growth inhibition grade, A.m (Alternaria alternata; [2]) | Growth inhibition grade, A.m (Alternaria alternata; [3]) | Growth inhibition grade, F.c (Fusarium oxysporum; [2]) | Growth inhibition grade, F.c (Fusarium oxysporum; [3]) | Growth inhibition grade, P.n (Phaeosphaeria nodorum; [2]) | Growth inhibition grade, P.n (Phaeosphaeria nodorum; [3]) | Growth inhibition grade, F.g (Fusarium graminearum; [2]) | Growth inhibition grade, F.g (Fusarium graminearum; [3]) | Growth inhibition grade, P.h [1, 2] | Growth inhibition grade, P.h [1, 3] | Growth inhibition grade, A.m (Alternaria alternata; plate medium, 5 mg/L) | Growth inhibition grade, A.m (Alternaria alternata; plate medium, 50 mg/L) | Growth inhibition grade, F.c (Fusarium oxysporum; plate medium, 5 mg/L) | Growth inhibition grade, F.c (Fusarium oxysporum; plate medium, 50 mg/L) | Growth inhibition grade, P.n (Phaeosphaeria nodorum; plate medium, 5 mg/L) | Growth inhibition grade, P.n (Phaeosphaeria nodorum; plate medium, 50 mg/L) | Growth inhibition grade, F.g (Fusarium graminearum; plate medium, 5 mg/L) | Growth inhibition grade, F.g (Fusarium graminearum; plate medium, 50 mg/L) | Growth inhibition grade, P.h ([1]; plate medium, 5 mg/L) | Growth inhibition grade, P.h ([1]; plate medium, 50 mg/L)
C[C@@]1(CCl)CC[C@@H](Cc2ccc(Cl)cc2)[C@]1(O)Cn1cncn1 (racemic) [Compound I-101] | 5 (% Mycerial growth inhibition of 80% or higher) | 5 (% Mycerial growth inhibition of 80% or higher) | 5 (% Mycerial growth inhibition of 80% or higher) | 5 (% Mycerial growth inhibition of 80% or higher) | 5 (% Mycerial growth inhibition of 80% or higher) | 5 (% Mycerial growth inhibition of 80% or higher) | 5 (% Mycerial growth inhibition of 80% or higher) | 5 (% Mycerial growth inhibition of 80% or higher) | 5 (% Mycerial growth inhibition of 80% or higher) | 5 (% Mycerial growth inhibition of 80% or higher) |  |  |  |  |  |  |  |  |  | 
C[C@]1(CCl)CC[C@@H](Cc2ccccc2F)[C@]1(O)Cn1cncn1 (relative stereo) [Compound I-86] | 4 (% Mycerial growth inhibition of less than 80 to 60% or higher) | 5 (% Mycerial growth inhibition of 80% or higher) | 5 (% Mycerial growth inhibition of 80% or higher) | 5 (% Mycerial growth inhibition of 80% or higher) | 5 (% Mycerial growth inhibition of 80% or higher) | 5 (% Mycerial growth inhibition of 80% or higher) | 5 (% Mycerial growth inhibition of 80% or higher) | 5 (% Mycerial growth inhibition of 80% or higher) | 5 (% Mycerial growth inhibition of 80% or higher) | 5 (% Mycerial growth inhibition of 80% or higher) |  |  |  |  |  |  |  |  |  | 
C[C@]1(CCl)CC[C@@H](Cc2ccc(F)cc2F)[C@]1(O)Cn1cncn1 (relative stereo) [Compound I-88] | 4 (% Mycerial growth inhibition of less than 80 to 60% or higher) | 5 (% Mycerial growth inhibition of 80% or higher) | 5 (% Mycerial growth inhibition of 80% or higher) | 5 (% Mycerial growth inhibition of 80% or higher) | 5 (% Mycerial growth inhibition of 80% or higher) | 5 (% Mycerial growth inhibition of 80% or higher) | 5 (% Mycerial growth inhibition of 80% or higher) | 5 (% Mycerial growth inhibition of 80% or higher) | 5 (% Mycerial growth inhibition of 80% or higher) | 5 (% Mycerial growth inhibition of 80% or higher) |  |  |  |  |  |  |  |  |  | 
CC[C@]1(CCl)CC[C@@H](Cc2ccccc2)[C@]1(O)Cn1cncn1 (relative stereo) [Compound I-97] | 4 (% Mycerial growth inhibition of less than 80 to 60% or higher) | 5 (% Mycerial growth inhibition of 80% or higher) | 5 (% Mycerial growth inhibition of 80% or higher) | 5 (% Mycerial growth inhibition of 80% or higher) | 5 (% Mycerial growth inhibition of 80% or higher) | 5 (% Mycerial growth inhibition of 80% or higher) | 5 (% Mycerial growth inhibition of 80% or higher) | 5 (% Mycerial growth inhibition of 80% or higher) | 5 (% Mycerial growth inhibition of 80% or higher) | 5 (% Mycerial growth inhibition of 80% or higher) |  |  |  |  |  |  |  |  |  | 
Cc1ccc(C[C@@H]2CC[C@](C)(CCl)[C@@]2(O)Cn2cncn2)cc1 (relative stereo) [Compound I-80] | 5 (% Mycerial growth inhibition of 80% or higher) | 5 (% Mycerial growth inhibition of 80% or higher) | 5 (% Mycerial growth inhibition of 80% or higher) | 5 (% Mycerial growth inhibition of 80% or higher) | 5 (% Mycerial growth inhibition of 80% or higher) | 5 (% Mycerial growth inhibition of 80% or higher) | 5 (% Mycerial growth inhibition of 80% or higher) | 5 (% Mycerial growth inhibition of 80% or higher) | 5 (% Mycerial growth inhibition of 80% or higher) | 5 (% Mycerial growth inhibition of 80% or higher) |  |  |  |  |  |  |  |  |  | 
CC1(C)CCC(Cc2ccc(Cl)cc2)C1(O)Cn1ncnc1S (racemic) [compound (2)] |  |  |  |  |  |  |  |  |  |  | 4 (% Mycerial growth inhibition of less than 80 to 60% or higher) | 4 (% Mycerial growth inhibition of less than 80 to 60% or higher) | 3 (% Mycelial growth inhibition of less than 60 to 40% or higher) | 4 (% Mycerial growth inhibition of less than 80 to 60% or higher) | 3 (% Mycelial growth inhibition of less than 60 to 40% or higher) | 4 (% Mycerial growth inhibition of less than 80 to 60% or higher) | 3 (% Mycelial growth inhibition of less than 60 to 40% or higher) | 5 (% Mycerial growth inhibition of 80% or higher) | 2 (% Mycerial growth inhibition of less than 40 to 20% or higher) | 4 (% Mycerial growth inhibition of less than 80 to 60% or higher)
C[C@]1(CCl)CC[C@@H](Cc2ccc(-c3ccccc3)cc2)[C@]1(O)Cn1cncn1 (relative stereo) [Compound I-82] | 5 (% Mycerial growth inhibition of 80% or higher) | 5 (% Mycerial growth inhibition of 80% or higher) | 5 (% Mycerial growth inhibition of 80% or higher) | 5 (% Mycerial growth inhibition of 80% or higher) | 5 (% Mycerial growth inhibition of 80% or higher) | 5 (% Mycerial growth inhibition of 80% or higher) | 5 (% Mycerial growth inhibition of 80% or higher) | 5 (% Mycerial growth inhibition of 80% or higher) | 5 (% Mycerial growth inhibition of 80% or higher) | 5 (% Mycerial growth inhibition of 80% or higher) |  |  |  |  |  |  |  |  |  | 
